Earlier results, collected in paper PMC7522982, “PKIS deep dive yields a chemical starting point for dark kinases and a cell active BRSK2 inhibitor” (Scientific Reports, 2020).

Key:
[1] = tested on: panel of 224 recombinant kinases; set-up: method as in PMID 26501955; conditions: Nanosyn; cited from earlier work
PIM3 = PIM3 (Homo sapiens, UniProt Q86V86); set-up: purchased Eurofins DiscoverX (scanMAX) / Eurofins enzymatic assays; method as in earlier work; conditions: cited from earlier work
60 cancer cell lines = tested on: 60 cancer cell lines; set-up: method as in PMID 26501955; conditions: cited from earlier work
[2] = tested on: cytoplasmic domain of PDGFR; set-up: method as in PMID 10048786; conditions: insect cells; read-out: IC50, autophosphorylation of the cytoplasmic domain of PDGFR in insect cells; cited from earlier work

COc1ccc2[nH]c3c4[nH]c5ccc(OC)cc5c4c4c(c3c2c1)C(=O)NC4=O [GW296115]
inhibition at 100 nM of the 3 kinases inhibited > 90% at 1 μM [1]: > 70%
Nanosyn % Inhibition at 1 μM (PIM3): 83%
effect on cell growth, NCI60 panel (60 cancer cell lines): does not impact cell growth
IC50 [2]: 2 µM
